Measurements reported in patent US20050009094A1 (priority 2001, published 2005).

Legend:
[1] = system: 14-3-3 gene expression; assay: Expression of 14-3-3 gene in G. cydonium after exposition to PCB118 (Northern and Western Blotting); assay type: in vivo, Geodia cydonium; conditions: 2 μg PCB 118/g wet weight, incubation 0.5 to 6 days
From the text: The analyses were accomplished by means of Northern Blotting [14-3-3 probe] (A) or Western Blotting [14-3-3 antibody] (B).
The employed method was PCR cloning.
The detection of expression of the 14-3-3 proteins on the protein level is accomplished by using antibodies. To this aim, one can either employ commercial antibodies (e.g. from the Calbiochem/Oncogene company) or antibodies raised against the recombinant invertebrate-14-3-3 protein from Geodia cydonium. […] The signals can again be quantified by using the chemiluminescence method. The tissue extracts can e.g. be prepared by homogenisation in a phosphate buffer containing 1 mM of EDTA and 1 mM of phenylmethylsulfonyl fluoride.
The 14-3-3-cDNA from the sea sponge Geodia cydonium was used as a gene probe for the detection of expression of the 14-3-3 proteins on the mRNA-level and the respective antibodies were used for determining the amount of protein. In the accomplished keeping experiments, PCB 118 was used as the model PCB.
1 ml of PCB118 (0.1 mg/ml in corn oil) were injected in 40 g sponge tissue. The samples were incubated in sea water for up to 6 days in 20 l aquariums at 17° C. with continuous aeration; the water was exchanged one time at day 2. Aliquot portions of the tissue (each about 200 mg) were withdrawn at the time zero or after an incubation period of 0.5; 1; 3; 5 and 6 days. […]

[2] = system: PrP^Sc exposed neurons; conditions: cited from earlier work

Structure (SMILES) | expression of the 14-3-3 gene (mRNA and protein) [1] | effect on PrP^Sc exposed neurons [2] | effect counteracting the neurotoxic peptide PrP106-126 [2] | extent of apoptosis caused by PrP106-126 [2]
Clc1ccc(-c2cc(Cl)c(Cl)cc2Cl)cc1Cl [PCB118] | very high values | – | – | –
CC12CC3CC(C)(C1)CC(N)(C3)C2 [Memantin] | – | protective effect | – | –
CCOC(=O)Nc1ccc(NCc2ccc(F)cc2)nc1N [Flupirtin] | – | protective effect | cytoprotective effect | reduces
